Results as given in patent US11566007B2, “Ras inhibitors” (Revolution Medicines, Inc., priority 2019, dated 2023).
pEC50, pIC50: −log10 of the molar value. “And” between values parts separate entries of the source, which are not always exact repeats. Equal values may be shown once. Read-outs that look alike come from different tables or passages of the source.

How the values were obtained:
[1] = tested on: NCI-H358 cells (K-Ras G12C); test: Potency assay: pERK in NCI-H358 cells; type: cell-based, human; conditions: Homo sapiens, NCI-H358; H358 KRAS G12C; read-out: pERK EC50
Outline: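 4 h cpd, 37 °C; 10-pt 3-fold series, 10 mM DMSO top stock, duplicates. Readout pERK: AlphaLISA SureFire Ultra or In-Cell Western (IR-800CW secondary, DRAQ5 DNA stain). IC50, 4-PL fit vs log conc.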

[2] = target: K-Ras G12C (Homo sapiens (Human), UniProt P01116+P62937, G12C); test: Ras-Raf (BRAF RBD) disruption / FRET / MOA assay, KRAS G12C; type: biochemical; conditions: KRAS G12C, Ras-Raf disruption/FRET/MOA assay
K-Ras G12C, sequence (P01116-2 other isoform, or with tags, fused parts or gaps G12C): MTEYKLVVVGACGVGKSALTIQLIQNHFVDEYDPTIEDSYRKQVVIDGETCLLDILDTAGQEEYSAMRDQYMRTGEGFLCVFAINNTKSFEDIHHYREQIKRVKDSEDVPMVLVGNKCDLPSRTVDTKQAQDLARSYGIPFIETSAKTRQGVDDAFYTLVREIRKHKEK
K-Ras G12C, sequence (P62937 whole entry): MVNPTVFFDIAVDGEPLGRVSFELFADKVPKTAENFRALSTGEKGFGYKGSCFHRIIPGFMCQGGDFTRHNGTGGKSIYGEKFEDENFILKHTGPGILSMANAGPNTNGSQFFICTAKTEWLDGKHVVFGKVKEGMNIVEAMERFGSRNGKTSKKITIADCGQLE
Outline: (§1)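 Ras:RAF disruption was scored as a fall in TR-FRET ratio relative to DMSO. Compound ranged in 3-fold steps over 10 points from 30 μM final; incubation ran 3 h at 25° C, detection antibodies a further 1.5 h. Reported as IC50.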

[3] = target: K-Ras G13C (Homo sapiens (Human), UniProt P01116+P62937, G13C); test: Ras-Raf (BRAF RBD) disruption / FRET / MOA assay, KRAS G13C; type: biochemical; conditions: KRAS G13C, Ras-Raf disruption/FRET/MOA assay
K-Ras G13C, sequence (P01116-2 other isoform, or with tags, fused parts or gaps G13C): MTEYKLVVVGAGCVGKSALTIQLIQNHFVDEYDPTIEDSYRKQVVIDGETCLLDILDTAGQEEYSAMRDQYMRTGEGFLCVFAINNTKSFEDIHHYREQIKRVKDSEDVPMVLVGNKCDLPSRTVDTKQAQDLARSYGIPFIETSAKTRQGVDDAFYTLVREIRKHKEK
K-Ras G13C, sequence (P62937 whole entry): as the sequence (P62937 whole entry) above
Outline: as §1

[4] = target: KRAS G12S (Homo sapiens (Human), UniProt P01116+P62937, G12S); test: Ras-Raf (BRAF RBD) disruption / FRET / MOA assay, KRAS G12S; type: biochemical; conditions: class symbols
KRAS G12S, sequence (P01116-2 other isoform, or with tags, fused parts or gaps G12S): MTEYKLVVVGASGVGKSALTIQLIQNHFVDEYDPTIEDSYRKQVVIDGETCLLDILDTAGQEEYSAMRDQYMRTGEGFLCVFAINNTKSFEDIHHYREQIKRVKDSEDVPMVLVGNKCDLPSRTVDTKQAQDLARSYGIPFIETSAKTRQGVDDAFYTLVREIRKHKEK
KRAS G12S, sequence (P62937 whole entry): as the sequence (P62937 whole entry) above
Outline: as §1

[5] = target: KRAS G12D (Homo sapiens (Human), UniProt P01116+P62937, G12D); test: Ras-Raf (BRAF RBD) disruption / FRET / MOA assay, KRAS G12D; type: biochemical; conditions: class symbols
KRAS G12D, sequence (P01116-2 other isoform, or with tags, fused parts or gaps G12D): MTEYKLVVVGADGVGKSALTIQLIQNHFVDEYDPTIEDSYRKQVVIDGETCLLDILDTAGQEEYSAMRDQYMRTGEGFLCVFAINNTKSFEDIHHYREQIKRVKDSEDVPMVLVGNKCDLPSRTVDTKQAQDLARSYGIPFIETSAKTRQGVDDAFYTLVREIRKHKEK
KRAS G12D, sequence (P62937 whole entry): as the sequence (P62937 whole entry) above
Outline: as §1

[6] = target: KRAS G12V (Homo sapiens (Human), UniProt P01116+P62937, G12V); test: Ras-Raf (BRAF RBD) disruption / FRET / MOA assay, KRAS G12V; type: biochemical
KRAS G12V, sequence (P01116-2 other isoform, or with tags, fused parts or gaps G12V): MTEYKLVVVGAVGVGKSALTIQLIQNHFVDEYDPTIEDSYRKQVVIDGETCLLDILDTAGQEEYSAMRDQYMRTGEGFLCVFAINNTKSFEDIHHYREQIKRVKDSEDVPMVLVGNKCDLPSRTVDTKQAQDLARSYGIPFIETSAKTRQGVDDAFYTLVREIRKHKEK
KRAS G12V, sequence (P62937 whole entry): as the sequence (P62937 whole entry) above
Outline: as §1

[7] = target: KRAS WT (Homo sapiens (Human), UniProt P01116+P62937); test: Ras-Raf (BRAF RBD) disruption / FRET / MOA assay, KRAS WT; type: biochemical
KRAS WT, sequence (P01116-2 other isoform, or with tags, fused parts or gaps): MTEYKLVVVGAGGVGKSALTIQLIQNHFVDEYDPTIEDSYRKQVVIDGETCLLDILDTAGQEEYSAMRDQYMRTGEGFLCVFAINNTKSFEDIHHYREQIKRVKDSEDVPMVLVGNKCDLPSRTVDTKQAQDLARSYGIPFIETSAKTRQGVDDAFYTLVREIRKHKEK
KRAS WT, sequence (P62937 whole entry): as the sequence (P62937 whole entry) above
Outline: as §1

[8] = target: KRAS G13D (Homo sapiens (Human), UniProt P01116+P62937, G13D); test: Ras-Raf (BRAF RBD) disruption / FRET / MOA assay, KRAS G13D; type: biochemical
KRAS G13D, sequence (P01116-2 other isoform, or with tags, fused parts or gaps G13D): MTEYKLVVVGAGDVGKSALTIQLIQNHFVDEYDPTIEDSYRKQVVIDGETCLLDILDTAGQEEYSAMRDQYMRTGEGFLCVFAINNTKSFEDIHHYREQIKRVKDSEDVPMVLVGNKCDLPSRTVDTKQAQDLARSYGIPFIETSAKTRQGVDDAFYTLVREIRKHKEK
KRAS G13D, sequence (P62937 whole entry, canonical isoform): as the sequence (P62937 whole entry) above
Protocol: (§2) The purpose of this biochemical assay is to measure the ability of test compounds to facilitate ternary complex formation between a nucleotide-loaded Ras isoform and cyclophilin A; the resulting ternary complex disrupts binding to a BRAF^RBD construct, inhibiting Ras signaling through a RAF effector.
(§3) Compound is present in plate wells as a 10-point 3-fold dilution series starting at a final concentration of 30 μM. After incubation at 25° C. for 3 hours, a mixture of Anti-His Eu-W1024 and anti-GST allophycocyanin is then added to assay sample wells at final concentrations of 10 nM and 50 nM, respectively, and the reaction incubated for an additional 1.5 hours. […] Compounds that facilitate disruption of a Ras:RAF complex are identified as those eliciting a decrease in the TR-FRET ratio relative to DMSO control wells.
This protocol may also be executed substituting other Ras proteins or nucleotides.
The purpose of this biochemical assay was to measure the ability of test compounds to facilitate ternary complex formation between a nucleotide-loaded K-Ras isoform and Cyclophilin A; the resulting ternary complex disrupts binding to a BRAF^RBD construct, inhibiting K-Ras signaling through a RAF effector. Data is reported as IC50 values.
Compound was present in plate wells as a 10-point 3-fold dilution series starting at a final concentration of 30 μM. After incubation at 25° C. for 3 hours, a mixture of Anti-His Eu-W1024 and anti-GST allophycocyanin was then added to assay sample wells at final concentrations of 10 nM and 50 nM, respectively, and the reaction incubated for an additional 1.5 hours. […] Compounds that facilitate disruption of a K-Ras:RAF complex were identified as those eliciting a decrease in the TR-FRET ratio relative to DMSO control wells.

[9] = target: NRAS G12C (Homo sapiens (Human), UniProt P01111+P62937, G12C); test: Ras-Raf (BRAF RBD) disruption / FRET / MOA assay, NRAS G12C; type: biochemical
NRAS G12C, sequence (P01111 whole entry G12C): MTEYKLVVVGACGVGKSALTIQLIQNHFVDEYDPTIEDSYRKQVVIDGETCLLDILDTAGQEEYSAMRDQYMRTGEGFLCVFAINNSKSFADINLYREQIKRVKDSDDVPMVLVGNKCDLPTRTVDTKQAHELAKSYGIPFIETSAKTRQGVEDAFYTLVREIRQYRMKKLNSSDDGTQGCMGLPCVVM
NRAS G12C, sequence (P62937 whole entry): as the sequence (P62937 whole entry) above
Protocol: as §2, §3
This protocol may also be executed substituting other Ras proteins or nucleotides. […]

[10] = read-out: IC50* KRAS G12C FRET data
[11] = read-out: IC50* KRAS G13C FRET data
[12] = Ras-Raf disruption/FRET/MOA assay, read-out: KRAS G12S FRET data IC50
[13] = Ras-Raf disruption/FRET/MOA assay, read-out: KRAS G12D FRET data IC50
[14] = read-out: IC50* KRAS G12V FRET data
[15] = read-out: IC50* KRAS WT FRET data
[16] = read-out: IC50* KRAS G13D FRET data
[17] = read-out: IC50* NRAS G12C FRET data

Structure (SMILES)	pEC50 [1]	pIC50 [2, 10]	pIC50 [3, 11]	pIC50 [4, 12]	pIC50 [5, 13]	pIC50 [6, 14]	pIC50 [7, 15]	pIC50 [8, 16]	pIC50 [9, 17]	pIC50 ([2]; IC50* KRAS G12C FRET data)	pIC50 ([3]; IC50* KRAS G13C FRET data)	pIC50 ([4]; KRAS G12S FRET data IC50, Ras-Raf disruption/FRET/MOA assay)	pIC50 ([5]; KRAS G12D FRET data IC50, Ras-Raf disruption/FRET/MOA assay)	pIC50 ([6]; IC50* KRAS G12V FRET data)	pIC50 ([7]; IC50* KRAS WT FRET data)	pIC50 ([8]; IC50* KRAS G13D FRET data)	pIC50 ([9]; IC50* NRAS G12C FRET data)
CCn1c(-c2cnccc2COC)c2c3cc(ccc31)-c1cccc(c1)C[C@H](NC(=O)[C@H](C(C)C)N(C)C(=O)[C@H]1CCN(C(=O)C#CCN(C)C)C1)C(=O)N1CCC[C@H](N1)C(=O)OCC(C)(C)C2 (atropisomer, axis not shown) [Example A120]	> 5.30	6.00 to 7.00 and > 8.00	6.00 to 7.00 and 5.00 to 6.00	5.00 to 6.00 and < 5.00	5.00 to 6.00	5.00 to 6.00 and < 5.00	5.00 to 6.00 and < 5.00	5.00 to 6.00	6.00 to 7.00 and > 8.00								
CCn1c(-c2cccnc2[C@H](C)OC)c2c3cc(ccc31)-c1cc(O)cc(c1)C[C@H](NC(=O)[C@H](C(C)C)N(C)C(=O)[C@H]1CCN(C(=O)/C=C/CN(C)C)C1)C(=O)N1CCC[C@H](N1)C(=O)OCC(C)(C)C2 (atropisomer, axis not shown) [Example A183]	> 5.30	7.00 to 8.00 and > 8.00	7.00 to 8.00 and 5.00 to 6.00	5.00 to 6.00 and 7.00 to 8.00	5.00 to 6.00 and 7.00 to 8.00	6.00 to 7.00 and 7.00 to 8.00	5.00 to 6.00 and 7.00 to 8.00	5.00 to 6.00 and 7.00 to 8.00	7.00 to 8.00 and > 8.00								
CCn1c(-c2cccnc2[C@H](C)OC)c2c3cc(ccc31)-c1cc(O)cc(c1)C[C@H](NC(=O)[C@H](C(C)C)N(C)C(=O)[C@H]1CCN(C(=O)/C=C/CN3CCOCC3)C1)C(=O)N1CCC[C@H](N1)C(=O)OCC(C)(C)C2 (atropisomer, axis not shown) [Example A184]	> 5.30	6.00 to 7.00 and > 8.00	6.00 to 7.00 and < 5.00	5.00 to 6.00 and 7.00 to 8.00	< 5.00 and 6.00 to 7.00	5.00 to 6.00 and 7.00 to 8.00	6.00 to 7.00 and < 5.00	6.00 to 7.00 and < 5.00	6.00 to 7.00 and > 8.00								
CCn1c(-c2cccnc2[C@H](C)OC)c2c3cc(ccc31)-c1cccc(c1)C[C@H](NC(=O)[C@H](C(C)C)N(C)C(=O)[C@H]1CCN(C(=O)/C=C/CN(C)C)C1)C(=O)N1CCC[C@H](N1)C(=O)OCC(C)(C)C2 (atropisomer, axis not shown) [Example A187]	> 5.30	7.00 to 8.00 and 5.00 to 6.00	< 5.00 and 5.00 to 6.00	5.00 to 6.00 and < 5.00	< 5.00	5.00 to 6.00 and < 5.00	5.00 to 6.00 and < 5.00	5.00 to 6.00 and < 5.00	7.00 to 8.00 and 5.00 to 6.00								
CCn1c(-c2cccnc2[C@H](C)OC)c2c3cc(ccc31)-c1cccc(c1)C[C@H](NC(=O)[C@H](C(C)C)N(C)C(=O)[C@H]1CCN(C(=O)C#CCN3CCOCC3)C1)C(=O)N1CCC[C@H](N1)C(=O)OCC(C)(C)C2 (atropisomer, axis not shown) [Example A191]	> 5.30	7.00 to 8.00 and 6.00 to 7.00	5.00 to 6.00 and < 5.00	< 5.00	< 5.00	5.00 to 6.00 and < 5.00	< 5.00	< 5.00	7.00 to 8.00 and 5.00 to 6.00								
C=CC(=O)N1CC[C@H](C(=O)N(C)[C@H](C(=O)N[C@H]2Cc3cc(O)cc(c3)-c3ccc4c(c3)c(c(-c3cccnc3[C@@H](OC)C3CC3)n4CC)CC(C)(C)COC(=O)[C@@H]3CCCN(N3)C2=O)C(C)C)C1 (atropisomer, axis not shown) [Example A206]	> 5.30	6.00 to 7.00	5.00 to 6.00	6.00 to 7.00	< 5.00	6.00 to 7.00	5.00 to 6.00	5.00 to 6.00	6.00 to 7.00								
CCn1c(-c2cccnc2[C@H](C)OC)c2c3cc(ccc31)-c1cc(O)cc(c1)C[C@H](NC(=O)[C@H](C(C)C)N(C)C(=O)c1ccc(NC(=O)/C=C/CN(C)C)cn1)C(=O)N1CCC[C@H](N1)C(=O)OCC(C)(C)C2 (atropisomer, axis not shown) [Example A251]	> 5.30	7.00 to 8.00	7.00 to 8.00 and > 8.00	6.00 to 7.00 and 5.00 to 6.00	5.00 to 6.00 and < 5.00	6.00 to 7.00 and 5.00 to 6.00	6.00 to 7.00 and 5.00 to 6.00	6.00 to 7.00 and 5.00 to 6.00	7.00 to 8.00								
CCn1c(-c2cccnc2[C@H](C)OC)c2c3cc(ccc31)-c1cc(O)cc(c1)C[C@H](NC(=O)[C@H](C(C)C)N(C)C(=O)C1CCN(C(=O)/C=C/CN(C)C)CC1)C(=O)N1CCC[C@H](N1)C(=O)OCC(C)(C)C2 (atropisomer, axis not shown) [Example A261]	> 5.30	7.00 to 8.00 and 6.00 to 7.00	7.00 to 8.00 and 6.00 to 7.00	6.00 to 7.00	5.00 to 6.00 and 6.00 to 7.00	6.00 to 7.00 and 5.00 to 6.00	5.00 to 6.00 and 7.00 to 8.00	6.00 to 7.00 and 7.00 to 8.00	7.00 to 8.00 and 6.00 to 7.00								
C=CC(=O)N1CC(CN2C(=O)O[C@H](C)[C@H]2C(=O)N[C@H]2Cc3cccc(c3)-c3ccc4c(c3)c(c(-c3cccnc3[C@H](C)OC)n4CC)CC(C)(C)COC(=O)[C@@H]3CCCN(N3)C2=O)C1 (atropisomer, axis not shown) [Example A460]										5.00 to 6.00	5.00 to 6.00	< 5.00	< 5.00	< 5.00	< 5.00	< 5.00	5.00 to 6.00
C=CC(=O)N1CC[C@H](C(=O)N(C)[C@H](C(=O)N[C@H]2Cc3cccc(c3)-c3ccc4c(c3)c(c(-c3cc(C5=CCN(C)CC5)cnc3[C@H](C)OC)n4CC)CC(C)(C)COC(=O)[C@@H]3CCCN(N3)C2=O)C(C)C)C1 (atropisomer, axis not shown) [Example A514]		5.00 to 6.00	5.00 to 6.00	< 5.00	< 5.00	< 5.00	< 5.00	< 5.00	5.00 to 6.00								
CCn1c(-c2cccnc2COC)c2c3cc(ccc31)-c1cc(O)cc(c1)C[C@H](NC(=O)[C@H](C(C)C)N(C)C(=O)[C@H]1CCN(C(=O)/C=C/CN(C)C)C1)C(=O)N1CCC[C@H](N1)C(=O)OCC(C)(C)C2 [Example A054]		7.00 to 8.00	6.00 to 7.00	6.00 to 7.00	6.00 to 7.00	6.00 to 7.00	6.00 to 7.00	6.00 to 7.00	7.00 to 8.00								
